Source: ChEMBL document CHEMBL1136559, “Discovery, SAR, synthesis, pharmacokinetic and biochemical characterization of A-192411: a novel fungicidal lipopeptide-(I)” (Bioorg Med Chem Lett, 2003)
Converted amounts (≈) assume the structure as drawn. Starred links: 1 amine or outer side, 2 acyl side, 3 side chain; linkers in the order of their positions; H or OH if unused. Positions of bridges follow the written chain, without caps; N, C: chain ends. Non-standard residues stand in square brackets, D forms with d. Residues, ends and D or L forms follow the SMILES beside them. *: point of attachment. Pro(cis-4-guanidino) = NC(N)=N[C@@H]1CN[C@H](C(=O)O)C1; hTyr(3-COCH2NH2) = NCC(=O)c1cc(CC[C@H](N)C(=O)O)ccc1O; X7 = CCCCCCCCOc1ccc(-c2ccc(-c3ccc(C(=O)*)cc3)cc2)cc1; X3 = CCCCCCCCOc1ccc(N2CCN(c3ccc(C(=O)*)cc3)CC2)cc1; X5 = CCCCCCCCN1CCN(c2ccc(-c3ccc(C(=O)*)cc3)cc2)CC1; X6 = NCC(=O)[C@H]1C[C@@H](C(=O)[*:2])N([*:1])C1; Pro(4S-NH2) = N[C@@H]1CN[C@H](C(=O)O)C1; Hyp = O=C(O)[C@@H]1C[C@@H](O)CN1; Orn = NCCC[C@H](N)C(=O)O

What was measured:
Assay type in all cases: functional
Aspergillus niger = assay: Antifungal activity against Aspergillus niger ATCC 16404; settings: Aspergillus niger, ATCC 16404; read-out: MIC
Candida albicans [1] = assay: Antifungal activity against Candida albicans 579A; settings: Candida albicans; read-out: MIC
Candida albicans [2] = assay: Antifungal activity against Candida albicans ATCC 38247; settings: Candida albicans, ATCC 38247; read-out: MIC
Kluyveromyces marxianus = assay: Antifungal activity against Candida kefyr ATCC 28838; settings: Kluyveromyces marxianus, ATCC 28838; read-out: MIC
Candida albicans [3] = assay: Antifungal activity against Candida albicans ATCC 62376; settings: Candida albicans, ATCC 62376; read-out: MIC
[Candida] zeylanoides = Antifungal activity against Candida zeylanoides NRRL Y-112; settings: Dujonia zeylanoides; read-out: MIC
Candida albicans [4] = assay: Antifungal activity against Candida albicans CAF-2; settings: Candida albicans; read-out: MIC
Candida albicans [5] = assay: Antifungal activity against Candida albicans ATCC 10231; settings: Candida albicans, ATCC 10231; read-out: MIC
Candida albicans [6] = assay: Antifungal activity against Candida albicans CCH 442; settings: Candida albicans; read-out: MIC
Nakaseomyces glabratus = assay: Antifungal activity against Torulopsis glabrata ATCC 15545; settings: Nakaseomyces glabratus, ATCC 15545; read-out: MIC
Naganishia albida = assay: Antifungal activity against Cryptococcus albidus ATCC 34140; settings: Naganishia albida, ATCC 34140; read-out: MIC

Compound | MIC (Aspergillus niger) | MIC (Candida albicans [1]) | MIC (Candida albicans [2]) | MIC (Kluyveromyces marxianus) | MIC (Candida albicans [3]) | MIC ([Candida] zeylanoides) | MIC (Candida albicans [4]) | MIC (Candida albicans [5]) | MIC (Candida albicans [6]) | MIC (Nakaseomyces glabratus) | MIC (Naganishia albida)
CCCCCCCCOc1ccc(N2CCN(c3ccc(C(=O)N[C@H]4CCCNC(=O)[C@@H]5C[C@H](N)CN5C(=O)[C@H]([C@@H](C)O)NC(=O)[C@H](CCc5ccc(O)c(C(=O)CN)c5)NC(=O)[C@@H]5C[C@@H](O)CN5C(=O)[C@H]([C@@H](C)O)NC4=O)cc3)CC2)cc1 (X3-[Orn]T[Hyp][hTyr(3-COCH2NH2)]T[Pro(4S-NH2)]; lactam 1-C) | 1.56 µg/mL (≈ 1.34 µM) | 0.1 µg/mL (≈ 0.0856 µM) | 0.2 µg/mL (≈ 0.171 µM) | 1.56 µg/mL (≈ 1.34 µM) | 0.1 µg/mL (≈ 0.0856 µM) | 0.1 µg/mL (≈ 0.0856 µM) | 0.1 µg/mL (≈ 0.0856 µM) | 0.1 µg/mL (≈ 0.0856 µM) | 0.1 µg/mL (≈ 0.0856 µM) | 0.2 µg/mL (≈ 0.171 µM) | 6.25 µg/mL (≈ 5.35 µM)
CCCCCCCCOc1ccc(N2CCN(c3ccc(C(=O)N[C@H]4CCCNC(=O)[C@@H]5C[C@H](N=C(N)N)CN5C(=O)[C@H]([C@@H](C)O)NC(=O)[C@H](CCc5ccc(O)c(C(=O)CN)c5)NC(=O)[C@@H]5C[C@@H](O)CN5C(=O)[C@H]([C@@H](C)O)NC4=O)cc3)CC2)cc1 (X3-[Orn]T[Hyp][hTyr(3-COCH2NH2)]T[Pro(cis-4-guanidino)]; lactam 1-C) | 6.25 µg/mL (≈ 5.16 µM) | 0.39 µg/mL (≈ 0.322 µM) | 0.39 µg/mL (≈ 0.322 µM) | 0.78 µg/mL (≈ 0.644 µM) | 0.78 µg/mL (≈ 0.644 µM) | 3.12 µg/mL (≈ 2.58 µM) | 0.1 µg/mL (≈ 0.0826 µM) | 0.78 µg/mL (≈ 0.644 µM) | 0.78 µg/mL (≈ 0.644 µM) | 0.78 µg/mL (≈ 0.644 µM) | 6.25 µg/mL (≈ 5.16 µM)
CCCCCCCCOc1ccc(N2CCN(c3ccc(C(=O)N[C@H]4CCCNC(=O)[C@@H]5C[C@H](C(=O)CN)CN5C(=O)[C@H]([C@@H](C)O)NC(=O)[C@H](CCc5ccc(O)c(C(=O)CN)c5)NC(=O)[C@@H]5C[C@@H](O)CN5C(=O)[C@H]([C@@H](C)O)NC4=O)cc3)CC2)cc1 (X3-[Orn]T[Hyp][hTyr(3-COCH2NH2)]T[X6]; lactam 1-C) | 12.5 µg/mL (≈ 10.3 µM) | 0.78 µg/mL (≈ 0.644 µM) | 0.39 µg/mL (≈ 0.322 µM) | 1.56 µg/mL (≈ 1.29 µM) | 0.39 µg/mL (≈ 0.322 µM) | 1.56 µg/mL (≈ 1.29 µM) | 0.1 µg/mL (≈ 0.0826 µM) | 0.78 µg/mL (≈ 0.644 µM) | 0.78 µg/mL (≈ 0.644 µM) | 1.56 µg/mL (≈ 1.29 µM) | 12.5 µg/mL (≈ 10.3 µM)
CCCCCCCCN1CCN(c2ccc(-c3ccc(C(=O)N[C@H]4CCCNC(=O)[C@@H]5C[C@H](C(=O)CN)CN5C(=O)[C@H]([C@@H](C)O)NC(=O)[C@H](CCc5ccc(O)c(C(=O)CN)c5)NC(=O)[C@@H]5CCCN5C(=O)[C@H]([C@@H](C)O)NC4=O)cc3)cc2)CC1 (X5-[Orn]TP[hTyr(3-COCH2NH2)]T[X6]; lactam 1-C) | 25 µg/mL (≈ 21.2 µM) | 0.39 µg/mL (≈ 0.331 µM) | 0.78 µg/mL (≈ 0.662 µM) | 1.56 µg/mL (≈ 1.32 µM) | 0.39 µg/mL (≈ 0.331 µM) | 0.2 µg/mL (≈ 0.17 µM) | 0.1 µg/mL (≈ 0.0849 µM) | 0.39 µg/mL (≈ 0.331 µM) | 0.39 µg/mL (≈ 0.331 µM) | 1.56 µg/mL (≈ 1.32 µM) | 25 µg/mL (≈ 21.2 µM)
CCCCCCCCN1CCN(c2ccc(-c3ccc(C(=O)N[C@H]4CCCNC(=O)[C@@H]5C[C@H](N=C(N)N)CN5C(=O)[C@H]([C@@H](C)O)NC(=O)[C@H](CCc5ccc(O)c(C(=O)CN)c5)NC(=O)[C@@H]5C[C@@H](O)CN5C(=O)[C@H]([C@@H](C)O)NC4=O)cc3)cc2)CC1 (X5-[Orn]T[Hyp][hTyr(3-COCH2NH2)]T[Pro(cis-4-guanidino)]; lactam 1-C) | 3.12 µg/mL (≈ 2.61 µM) | 0.2 µg/mL (≈ 0.167 µM) | 0.2 µg/mL (≈ 0.167 µM) | 1.56 µg/mL (≈ 1.31 µM) | 0.2 µg/mL (≈ 0.167 µM) | 0.2 µg/mL (≈ 0.167 µM) | 0.1 µg/mL (≈ 0.0837 µM) | 0.2 µg/mL (≈ 0.167 µM) | 0.1 µg/mL (≈ 0.0837 µM) | 1.56 µg/mL (≈ 1.31 µM) | 12.5 µg/mL (≈ 10.5 µM)
CCCCCCCCOc1ccc(-c2ccc(-c3ccc(C(=O)N[C@H]4CCCNC(=O)[C@@H]5C[C@H](N)CN5C(=O)[C@H]([C@@H](C)O)NC(=O)[C@H](CCc5ccc(O)c(C(=O)CN)c5)NC(=O)[C@@H]5CCCN5C(=O)[C@H]([C@@H](C)O)NC4=O)cc3)cc2)cc1 (X7-[Orn]TP[hTyr(3-COCH2NH2)]T[Pro(4S-NH2)]; lactam 1-C) | 25 µg/mL (≈ 21.8 µM) | 0.78 µg/mL (≈ 0.682 µM) | 0.78 µg/mL (≈ 0.682 µM) | 0.78 µg/mL (≈ 0.682 µM) | 0.78 µg/mL (≈ 0.682 µM) | 0.78 µg/mL (≈ 0.682 µM) | 0.1 µg/mL (≈ 0.0874 µM) | 1.56 µg/mL (≈ 1.36 µM) | 0.78 µg/mL (≈ 0.682 µM) | 0.78 µg/mL (≈ 0.682 µM) | 12.5 µg/mL (≈ 10.9 µM)
